Test results reported in patent publication US9109048B2, “Inhibition of tumor growth” (priority 1998, dated 2015).
Values after ≈ are worked out from the molar mass of the structure shown. Blank lines part the entries; values can stand above or below the molecule they belong to. Square brackets hold non-standard residues; d marks the D form. Ends that are not written are not given here. Peptide text beside a SMILES is read from it. * marks the point of attachment. Trp(2-Pmc) = Cc1c(C)c(S(=O)(=O)c2[nH]c3ccccc3c2C[C@H](N)C(=O)O)c(C)c2c1OC(C)(C)CC2; Bip = N[C@@H](Cc1ccc(-c2ccccc2)cc1)C(=O)O; Fmoc = O=C(OCC1c2ccccc2-c2ccccc21)*; Acm = CC(=O)NC*

What was measured:
[1] = test system: Escherichia coli ATCC 25922; assay: MIC (minimum inhibitory concentration) test, microdilution; assay type: cell-based
Protocol: (§1) The bacterial strains used were: Escherichia coli ATCC 25922 and Staphylococcus aureus ATCC 25923. All strains were stored at −70° C. The bacteria were grown in 2% Bacto Peptone water (Difco 1807-17-4). All tests were performed with bacteria in mid-logarithmic growth phase. Determination of the minimum inhibitory concentration (MIC) of the peptides for bacterial strains were performed in 1% Bacto Peptone water. A standard microdilution technique with an inoculum of 2×10^6 CFU/ml was used. All assays were performed in triplets. Since the peptides are positively charged and therefore could adhere to the plastic wells, we controlled the actual concentration of the peptides in the solution by HPLC. There was no difference between the concentration of the peptides before or after adding the solution to the plastic wells.

[2] = test system: Staphylococcus aureus ATCC 25923; assay: as above; assay type: cell-based
Protocol: as §1

[3] = test system: MRSA (methicillin resistant S. aureus); assay type: cell-based; settings: Table 15
Protocol: as §1
Table 15 below gives the antibacterial activity and toxicity data for some preferred peptides of the invention. MRSA is methicillin resistant S. aureus and MRSE is methicilin resistant S. epidermidis.

[4] = test system: Meth A cells (murine sarcoma cell line); assay: Cytotoxicity on Meth A cells, MTT method
Protocol: Peptide solutions (0.1 ml) were added and the plates incubated at 37° C. for 30 minutes, 4 hours or 24 hours. The cytotoxicity was measured using the MTT method (Mosmann et al., J. Immunol. (1986) 136, 2348-2357).
Cells in the growth phase were harvested and washed in fresh medium and injected subcutaneously into the abdominal region of the mice.
The cytotoxic effect of the peptides on different murine and human tumor cells were measured using the MTT method (Mosmann et al., J. Immunol. (1986) 136, 2348-2357).
MTT is a soluble tetrazolium salt yielding a yellow solution when prepared in media or salt solutions lacking phenol red. Dissolved MTT is converted to an insoluble purple formazan by cleavage of the tetrazolium ring by dehydrogenase enzymes. This water insoluble formazan can be solubilized using isopropanol or other solvents and the dissolved material is measured spectrophotometrically. The absorbance was measured as a function of concentration of converted dye.
Cells were maintained in […] medium containing 10% FBS, 1% L-glutamine and 0.1% penicillin and streptomycin. Cells to be used in the assay were grown to confluency, trypsinated and split to single cell suspension, counted and centrifuged at 1500 rpm for 10 min. […][…] of cell suspension was transferred to each well on a 96-well microtiter plate. The cells were stimulated by adding […] of various concentrations of peptides diluted with assay medium to each well. The final concentrations of peptide were for example: 5, 10, 20, 40, 60, 80, 100, and 200 mg/ml. […] As a negative control only medium was added to the cells, and as a positive control (100% killing) 1% triton X-100 was added. Following an incubation period of 4 h., 20 ml MTT dissolved in PBS at a concentration of 5 mg/ml was added to each well, and the plate was incubated further for 2 h. 130 ml of the supernatant were then removed and […] acid alcohol (0.04-0.1 N HCl in isopropanol) added to each well to dissolve the dark blue crystals. The plate was placed on a shaker for 1 h and read spectrophotometrically at 590 nm in a microtiterplate reader using the Softmaxâ program.

[5] = Table 7, in µg/mL (unit assumed)

Molecule: CSCC[C@H](NC(=O)[C@H](CCCNC(=N)N)NC(=O)[C@H](Cc1ccc(-c2ccccc2)cc1)NC(=O)[C@H](CCC(N)=O)NC(=O)[C@H](Cc1ccc(-c2ccccc2)cc1)NC(=O)[C@H](CCCNC(=N)N)NC(=O)[C@H](CCCNC(=N)N)NC(=O)[C@H](CSCNC(C)=O)NC(=O)[C@H](CCCCN)NC(=O)[C@@H](N)Cc1ccccc1)C(=O)N[C@@H](CCCCN)C(=O)N[C@@H](CCCCN)C(=O)N[C@@H](CC(C)C)C(=O)NCC(=O)N[C@@H](C)C(=O)O [LFB Bip6,8]
MIC E. coli ([1]; Table 15): ≧5.8 μM | MIC S. aureus ([2]; Table 15): 3.0 µg/mL (≈ 1.4 µM) | MIC MRSA [3]: 2.5 µg/mL (≈ 1.17 µM)

Molecule: CSCC[C@H](NC(=O)[C@H](CCCNC(=N)N)NC(=O)[C@H](C)NC(=O)[C@H](CCC(N)=O)NC(=O)[C@H](Cc1c[nH]c2ccccc12)NC(=O)[C@H](CCCNC(=N)N)NC(=O)[C@H](CCCNC(=N)N)NC(=O)[C@H](CSCNC(C)=O)NC(=O)[C@H](CCCCN)NC(=O)[C@H](Cc1ccccc1)NC(=O)OCC1c2ccccc2-c2ccccc21)C(=O)N[C@@H](CCCCN)C(=O)N[C@@H](CCCCN)C(=O)N[C@@H](CC(C)C)C(=O)NCC(=O)N[C@@H](C)C(=O)O [LFB A8 FMOC] (Fmoc-FKC(Acm)RRWQARMKKLGA-OH)
concentration effective in killing Meth A cells ([4]; 4 hours incubation): 250 µg/mL | concentration effective in killing Meth A cells ([4]; ½ hour incubation): 250 µg/mL

Molecule: CSCC[C@H](NC(=O)[C@H](CCCNC(=N)N)NC(=O)[C@H](C)NC(=O)[C@H](CCC(N)=O)NC(=O)[C@H](Cc1c(S(=O)(=O)c2c(C)c(C)c3c(c2C)CCC(C)(C)O3)[nH]c2ccccc12)NC(=O)[C@H](CCCNC(=N)N)NC(=O)[C@H](CCCNC(=N)N)NC(=O)[C@H](CSCNC(C)=O)NC(=O)[C@H](CCCCN)NC(=O)[C@H](Cc1ccccc1)NC(=O)OCC1c2ccccc2-c2ccccc21)C(=O)N[C@@H](CCCCN)C(=O)N[C@@H](CCCCN)C(=O)N[C@@H](CC(C)C)C(=O)NCC(=O)N[C@@H](C)C(=O)O [LFB A8 FMOC PMC] (Fmoc-FKC(Acm)RR[Trp(2-Pmc)]QARMKKLGA-OH)
concentration effective in killing Meth A cells ([4]; 4 hours incubation): 50 µg/mL | concentration effective in killing Meth A cells ([4]; ½ hour incubation): higher than 100 μg/ml

Molecule: CSCC[C@H](NC(=O)[C@H](CCCNC(=N)N)NC(=O)[C@H](Cc1c[nH]c2ccccc12)NC(=O)[C@H](CCC(N)=O)NC(=O)[C@H](Cc1c[nH]c2ccccc12)NC(=O)[C@H](CCCNC(=N)N)NC(=O)[C@H](CCCNC(=N)N)NC(=O)[C@H](Cc1ccc(-c2ccccc2)cc1)NC(=O)[C@H](CCCCN)NC(=O)[C@@H](N)Cc1ccccc1)C(=O)N[C@@H](CCCCN)C(=O)N[C@@H](CCCCN)C(=O)N[C@@H](CC(C)C)C(=O)NCC(=O)N[C@@H](C)C(=O)O [LFB Bip3] (H-FK[Bip]RRWQWRMKKLGA-OH; N-terminus assumed)
MIC MRSA [3]: 2.5 µg/mL (≈ 1.18 µM)

Molecule: H-KVALKALKVALKALKVALKAL-NH2 [MSI 20, reference compound]
Meth A IC 50 ([4]; 4 h): >100 µg/mL

Molecule: H-GIGKFLHSAKKFGKAFVGEIMNS-OH [Mag2, reference compound]
Meth A IC 50 ([4]; Table 11, peptide required to kill 50% of Meth A cells): 100 µg/mL | MIC E. coli [1, 5]: 20 | MIC E. coli ([1]; Table 11): 20 µg/mL | MIC S. aureus [2, 5]: >200 | MIC S. aureus ([2]; Table 11): >100 µg/mL

More lines, main results first:

MIC E. coli ([1]; ATCC 25922): 5 µg/mL | MIC S. aureus ([2]; ATCC 25923): 5 µg/mL
Molecule: H-KMASKAGKIAGKIAKVALKAL-NH2 [MSI 24, reference compound]
Meth A IC 50 ([4]; 4 h): >100 µg/mL

MIC E. coli ([1]; ATCC 25922): >50 µg/mL | MIC S. aureus ([2]; ATCC 25923): >50 µg/mL
Molecule: GIGKWLKKWRKFWRAWVRIWKKG [Tosmag W5,9,13,16,20]
Meth A IC 50 ([4]; 4 h): 23 µg/mL

MIC E. coli ([1]; ATCC 25922): 7.5 µg/mL | MIC E. coli [1, 5]: 5-10 | MIC S. aureus ([2]; ATCC 25923): 10 µg/mL | MIC S. aureus [2, 5]: 5-10
Molecule: GIGKFLHSAKKFGKAFVGWIMNS [Mag2 W19]
Meth A IC 50 ([4]; 4 h): 9 µg/mL
